Molecular target: T1, CT (mitochondrial citrate transporter) (Mucor circinelloides, UniProt S2JNX7)
T1 construct: gene HMPREF1544_02933; complete ct gene, codon-optimised, pET30a(+) NdeI-ATG-ct-Histag-stop-HindIII (C-terminal His tag kept); E. coli BL21(DE3) inclusion bodies, urea-solubilised, Ni column, renatured, reconstituted in liposomes; about 32 kDa; three Mtc domains 10-104, 106-199, 209-296
T1 sequence (S2JNX7 1-301): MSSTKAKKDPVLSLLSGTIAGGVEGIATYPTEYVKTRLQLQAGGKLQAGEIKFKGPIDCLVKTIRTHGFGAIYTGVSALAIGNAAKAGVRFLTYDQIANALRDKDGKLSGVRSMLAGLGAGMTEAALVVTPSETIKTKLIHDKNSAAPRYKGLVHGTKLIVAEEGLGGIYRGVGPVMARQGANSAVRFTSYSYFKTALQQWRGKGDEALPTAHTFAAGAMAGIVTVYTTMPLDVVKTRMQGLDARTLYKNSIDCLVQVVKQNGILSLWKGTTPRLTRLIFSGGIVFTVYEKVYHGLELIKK
Assay: inhibition of […]citrate/citrate exchange in CT-reconstituted liposomes
Format: biochemical
Details: 20 mM inhibitor; 0.01 mM [14C]citrate outside, 10 mM citrate inside; 2 min

## Cc1ncc(COP(=O)(O)O)c(C=O)c1O [pyridoxal-5'-phosphate]
  inhibition at 20 mM: This activity was inhibited strongly by PLP
